One substance from publication PMC8864869, “A short peptide derived from pigment epithelial-derived factor exhibits an angioinhibitory effect” (BMC Ophthalmology, 2022) can be followed below.

Data set [1] relates to RPMI8226 cells. Format: cell-based, human. How it is done: Human multiple myeloma cells, RPMI8226 were purchased from Bioresource Collection and Research Center (Hsinchu, Taiwan). Cells were cultivated in RPMI1640 medium supplemented with 10% FBS, 50 μg/ml penicillin, 50 μg/ml streptomycin, and 2 mM L-glutamine at 37 °C in a 5% CO2 atmosphere. Cell viability was determined by an MTT assay. […] MTT stock solution added to medium alone was included as a negative control. Aliquots (450 μl) from each sample were transferred to a new well of a 48-well culture plate, 100 μl DMSO added with thorough mixing, and allowed to react at 37 °C for 20 min before reading the absorbance at 570 nm.

The subject of data set [2] is JNK. The data set can be described thus: Western blot of phosphorylated JNK in RPMI8226 cells. Format: cell-based, human. The conditions noted are these: 10 ng/ml VEGF + 25 μM 7-mer. The text has this: Cell lysis and SDS–PAGE were as described previously. Antibodies used in this study were for active p38 MAPK and active JNK (Promega, Madison, WI), p38 MAPK/SAPK2, JNK (Upstate Biotechnology, Lake Placid, NY), p53 (Chemicon, Temecula, CA), bax, p21, cleaved caspase-3 and β-actin (Abcam Ltd., Cambridge, UK). Proteins of interest were detected using the appropriate IgG-horseradish peroxidase-linked secondary antibody (Santa Cruz Biotechnology) and enhanced chemiluminescence reagent (Amersham, Arlington Heights, IL). X-ray films were scanned on a model GS-700 Imaging Densitometer (Bio-Rad, Hercules, CA) and analyzed with Labworks 4.0 software. For quantification, blots from at least three independent experiments were used.
Fig. 3 The 7-mer induces JNK signaling to trigger RPMI8226 cell apoptosis. 3 × 10^5 cells were serum starved for 24 h and then exposed to 10 ng/ml VEGF and 25 μM 7-mer for the indicated time periods. a Western blotting was performed to detect the active phosphorylated forms of JNK (p-JNK) and p38 MAPK (p-p38), shown in the upper panels. Antibodies were then stripped and the blots were re-incubated with anti-JNK and anti-p38 MAPK antibodies (lower panels), respectively, to detect the levels of total JNK and p38 MAPK. b Densitometric analyses from three independent experiments are shown. c Cell were pretreated with 10 μM SP600125 or SB203580 for 10 min and then treated as described above for 24 h and apoptosis was quantified using the annexin V-FITC apoptosis detection kit. *P < 0.0001 versus 7-mer-treated cells
A general note: Immunoblotting shows a protein as a band on a membrane.

Data set [3] concerns HUVECs. The data set can be described thus: Annexin V-FITC apoptosis assay in HUVECs. Format: cell-based, human. The conditions noted are these: 20 ng/ml VEGF + peptide (20 μM), 0.5% FBS, 16 h; four independent experiments. On the procedure: Cells were grown in Medium 200 with LSGS (supplement contains 1.9% fetal bovine serum, 3 ng/ml bFGF, 10 μg/ml heparin, 1 μg/ml hydrocortisone, and 10 ng/ml EGF). Culture plates were coated with 2% gelatin. Cells (passages 4–8) were cultured at 37 °C in a humidified atmosphere of 5% CO2. For peptide treatment, HUVECs were cultured in low serum (0.5% FBS) medium containing 20 ng/ml VEGF and 7-mer peptide (20 μM, unless otherwise specified).
Cell apoptosis was examined using a TACS annexin V-FITC kit according to the manufacturer’s instructions for in situ staining. The cell numbers were monitored by counterstaining with Hoechst 33342. Afterward, apoptosis was examined and photographed by a Zeiss epifluorescence microscope (× 100, 10 fields/sample). Images were recorded on Zeiss software.
The experiment was repeated three times. Magnification is × 40. b The 7-mer induces HUVEC apoptosis in the presence of VEGF. Cell apoptosis was analyzed using the Annexin V-FITC Apoptosis Detection kit according to the in situ staining protocol after treatment for 16 h. Double staining with an annexin V-FITC and the fluorescent dye Hoechst 33342 was used to visualize the apoptotic cells (green) and nuclei (blue), respectively. A representative result of four independent experiments is shown. The percentages of apoptotic cells were quantified. ^aP < 0.005 versus VEGF-treated cells

Data set [4] concerns rat aortic ring. The data set can be described thus: Rat aortic ring assay. The settings on record: 100 μM 7-mer, 5 days. How it is done:
Thoracic aortas were removed from euthanized 10-week-old male Sprague Dawley rats and gently stripped of periaortic fibroadipose tissue. Aortas were sectioned into ~ 1 mm length rings, being manipulated in Medium 200. Matrigel (120 μl) mixed with 24 μl LSGS, 72 μl medium, 200 ng/ml VEGF and 100 μM 7-mer was used to embed the aortic ring and then polymerized in 12-well plates (37 °C for 30 min). Subsequently, 1 ml culture medium supplemented with 100 units/ml penicillin, and […] was added. The cultures were propagated at 37 °C in a humidified incubator for up to 5 days. Sprouts were recorded using an inverted microscope platform (Leica DMI6000B) with bright-field optics. Each ring was scored by three independent observers on a scale 0–3, depending on the degree of vessel sprouting observed (0 = no sprouting, 3 = profuse sprouting).
Fig. 6 The effect of the 7-mer on VEGF-induced microvessel sprouting of aortic ring and corneal neovascularization. a Rat aortic ring assay. Photomicrographs of aortic ring explants after treatment for 5 days (magnification × 40). Sprouting was evaluated on a scale from 0 (no sprouts) to 3 (profuse sprouting). There was no sprouting of vessels from ex vivo aortic rings embedded in Matrigel without LSGS or VEGF. b The 7-mer inhibits VEGF-induced corneal angiogenesis in C57BL/6 mice. […]

“And” between values parts separate entries of the source, which are not always exact repeats. Equal values may be shown once.

As for “7-mer: PEDF Asp64-Ser70, N-acetylated, C-amidated (Ac-DLYRVRS-NH2; UniProt P36955 64-70, looked up, fragment)”, the “cytotoxic effect on RPMI8226 cells in the absence of VEGF” value in data set [1] was “neither peptide had a significant cytotoxic effect”. The “MTT value, VEGF-induced RPMI8226 cell proliferation, 1 μM peptide” value in data set [1] (10 ng/ml VEGF + 1 μM peptide (lowest concentration), 24 h, mean ± SD) is listed as 101 ± 1.2%. The “anti-VEGF activity of the 7-mer relative to the 34-mer (MTT)” value in data set [1] (10 ng/ml VEGF + 25 μM peptide, 24 h) is ~ 1.5 fold. Moreover, the “MTT value, VEGF-induced RPMI8226 cell proliferation” value in data set [1] (10 ng/ml VEGF + 25 μM peptide, 24 h, serum-free medium, solvent-treated/untreated cells set as 100%, mean ± SD, three independent experiments) is 58 ± 4.1% and 57.3% and 54 ± 1.5%. In data set [1] (1, 5, 10 and 25 μM peptide with VEGF, MTT), the “dose dependence of cell viability of VEGF-treated RPMI8226 cells” value is reported as “decreased cell viability in a dose-dependent manner”. For the same substance, in data set [2], the “time for which JNK phosphorylation was sustained” value is reported as “up to 10 h” and the “time of peak p-p46 JNK” value is recorded as 2 h. Also, in data set [2] (time course), the “p-p46 JNK phosphorylation” value is “increase in p-p46 JNK was detected 20 min after 7-mer treatment”. Besides, the “apoptotic HUVECs (annexin V-FITC)” value in data set [3] came to 43.0 ± 5.5%. In addition, the “VEGF-induced outgrowth of sprouts from aortic rings” value in data set [4] (200 ng/ml VEGF, P = 0.001) is given as “this outgrowth was suppressed”. In addition, the “sprouts of aortic rings exposed to LSGS and VEGF” value in data set [4] (LSGS + 200 ng/ml VEGF) was “blocked by the 7-mer”.
